Results as given in patent publication US20210300960A1, “SUGAR DERIVATIVE OR SALT THEREOF, AND ANTIBACTERIAL AGENT OR ANTIBACTERIAL ACTIVITY ENHANCER USING SAME” (NAGOYA INSTITUTE OF TECHNOLOGY, priority 2016, published 2021).
Read-outs that look alike come from different tables or passages of the source.

Assays:
Escherichia coli = experiment: Antimicrobial activity enhancing action: MIC of novobiocin or erythromycin alone or in combined use with cyclodextrin derivative, Escherichia coli; type: cell-based
Procedure: The evaluation was performed by a procedure as follows. Specifically, before testing, each of the bacteria were incubated on a minimal salt medium combined with common bacteria-use dried broth or polypeptone and reached a logarithmic growth phase. […] Some of existing antimicrobial substances fail to exert their inherent antimicrobial activities, due to the bacterial membrane serving as a physical barrier. In these cases, the substances offer high minimum inhibitory concentrations (MICs) necessary for inhibiting the bacterial growth and are considered as having no antimicrobial (antibacterial) activity. In particular, this allows Gram-negative bacteria, which have not only a cytoplasmic membrane, but also a bacterial outer membrane, to have remarkable drug resistance. […] Next, the compound (cyclodextrin derivative) (a) represented by Chemical Formula (11) was evaluated for antimicrobial activity enhancing action through a test performed by a procedure similar to that in Example 3.

Pseudomonas aeruginosa = experiment: Antimicrobial activity enhancing action: MIC of novobiocin or erythromycin alone or in combined use with cyclodextrin derivative, Pseudomonas aeruginosa; type: cell-based; settings: cyclodextrin derivative 0 μg/mL (single use)
Procedure: The evaluation was performed by a procedure as follows. Specifically, before testing, each of the bacteria were incubated on a minimal salt medium combined with common bacteria-use dried broth or polypeptone and reached a logarithmic growth phase. […] The testing incubation was performed at an initial bacterial concentration of 1×10^4 cells per milliliter.
The test was performed using bacteria Escherichia coli and Pseudomonas aeruginosa.

| MIC (Escherichia coli; read-out: Minimum inhibitory concentration (MIC) of erythromycin, cyclodextrin derivative 0 μg/mL (single use)) [µg/mL] | MIC (Escherichia coli; cyclodextrin derivative 0 μg/mL (single use), read-out: Minimum inhibitory concentration (MIC) of novobiocin) [µg/mL] | Minimum inhibitory concentration (MIC) of novobiocin (Pseudomonas aeruginosa) [µg/mL] | MIC (Pseudomonas aeruginosa; read-out: Minimum inhibitory concentration (MIC) of novobiocin) [µg/mL] | SMILES |
| --- | --- | --- | --- | --- |
| 64 |  |  |  | CC[C@H]1OC(=O)[C@H](C)[C@@H](O[C@H]2C[C@@](C)(OC)[C@@H](O)[C@H](C)O2)[C@H](C)[C@@H](O[C@@H]2O[C@H](C)C[C@H](N(C)C)[C@H]2O)[C@](C)(O)C[C@@H](C)C(=O)[C@H](C)[C@@H](O)[C@]1(C)O [erythromycin] |
|  | 128 | 2048 | 2050 | CO[C@@H]1[C@@H](OC(N)=O)[C@@H](O)[C@H](Oc2ccc3c(O)c(NC(=O)c4ccc(O)c(CC=C(C)C)c4)c(=O)oc3c2C)OC1(C)C [novobiocin] |
